Laboratory results taken from US20260098017A1, “NOVEL AROMATIC RING DERIVATIVE CONTAINING AMIDE SUBSTITUTION AND USE THEREOF” (TIANJIN PHARMACEUTICAL BIOTECHNOLOGY CO., LTD., priority 2022, published 2026).
Like-named read-outs stand apart in the source and are kept apart here. Marks after values point to notes of the source that are not given here.

How the values were obtained:
JAK3 JH1 kinase = JAK3 JH1 kinase (Homo sapiens, UniProt P52333); experiment: JAK3 JH1 enzyme assay in vitro (TR-FRET); format: biochemical
[1] = tested on: imiquimod-induced mouse psoriasis-like model; experiment: Imiquimod-induced mouse psoriasis-like model (PASI score); format: in vivo; conditions: bid; for Improvement of psoriasis symptoms by oral administration: oral gavage, 10 mg/kg, 25 mg/kg, 50 mg/kg, compared with the model group
SD rats = experiment: Four-week repeat-dose toxicity study in rats; format: in vivo; conditions: rat, 28 days, po bid, 50 mg/kg
Protocol: Each group contained 10 animals, with an equal number of males and females.
The treatment lasted for four consecutive weeks (28 days).
• Daily clinical observation and body weight measurement; • After the last administration, rats were fasted for more than 16 h, anesthetized on the next day, and blood was collected from abdominal aorta. Tests such as hematology (EDTA-2K anticoagulation), blood biochemistry (serum), coagulation function (separated plasma with sodium citrate anticoagulation) and the like were respectively carried out; • After euthanization of the animals, the tissue organs were dissected and observed in general, and organ weights and coefficients (heart, liver, spleen, kidney, thymus) were determined; • The skin and lung tissues of the administration site were taken for HE staining to observe the changes in epidermal thickness, dermal inflammatory cells and pulmonary lesions.

JAK2 JH1 kinase = JAK2 JH1 kinase (Homo sapiens, UniProt O60674); experiment: JAK2 JH1 enzyme assay in vitro (TR-FRET); format: biochemical; conditions: read-out: JAK 2 JH1 IC50
TYK2 JH1 kinase = molecular target: T1, TYK2 JH1 kinase (Homo sapiens, UniProt P29597); experiment: TYK2 JH1 enzyme assay in vitro (TR-FRET); format: biochemical
T1 sequence (P29597 897-1176 limits assumed): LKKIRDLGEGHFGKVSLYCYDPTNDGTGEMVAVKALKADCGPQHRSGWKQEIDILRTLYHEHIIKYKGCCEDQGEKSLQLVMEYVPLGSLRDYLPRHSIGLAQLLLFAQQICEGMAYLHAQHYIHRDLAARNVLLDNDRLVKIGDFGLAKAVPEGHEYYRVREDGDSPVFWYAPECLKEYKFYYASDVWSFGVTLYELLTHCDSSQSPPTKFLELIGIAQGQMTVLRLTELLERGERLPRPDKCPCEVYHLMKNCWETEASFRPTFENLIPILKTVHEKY

TYK2 JH2 pseudokinase = TYK2 JH2 pseudokinase (Homo sapiens, UniProt P29597); experiment: TYK2 JH2 enzyme binding assay in vitro (TR-FRET)
Protocol: Instrumentation: Envision microplate reader (PerkinElmer), ECHO550 (LABCYTE).
Method: the inhibitory effects of compounds on TYK2 JH2 pseudokinase was tested using time-resolved fluorescence resonance energy transfer (TR-FRET) method.
Procedure: compounds were prepared into 10 mM stock solutions using DMSO, which were further diluted into compound dilutions (200×) with different concentration gradients in DMSO, and the compound dilutions (200×) were transferred to a 384-well assay plate using an Echo instrument. […] TYK2 JH2 pseudokinase, Tb antibody, and Tracer working solutions were prepared using the dilution buffer, respectively. 5 uL of TYK2 JH2 pseudokinase working solution (final concentration 0.5 nM) was added to a 384-well assay plate, and centrifuged at 1000 rpm for 30 s. 5 uL of Tb antibody (final concentration 1×) was added to the 384-well assay plate, and centrifuged at 1000 rpm for 30 s. 5 uL of Tracer (final concentration 0.5 nM) was added to the 384-well assay plate, and centrifuged at 1000 rpm for 30 s. Incubation was performed at room temperature for 60 min, and then at 4° C. overnight.
Data Analysis: XLfit, a software developed by IDBS and integrated into the Microsoft Excel environment, was used to process and analyze the test data.

JAK1 JH1 kinase = JAK1 JH1 kinase (Homo sapiens, UniProt P23458); experiment: JAK1 JH1 enzyme assay in vitro (TR-FRET); format: biochemical; conditions: read-out: JAK 1 JH1 IC50
[2] = molecular target: Ba/F3 cell line expressing TYK2 (Homo sapiens, UniProt P29597, cells depend on it, form not given); experiment: In vitro cellular inhibition assay (Ba/F3 cell proliferation, CellTiter-Glo); format: cell-based; conditions: read-out: IC50 (the source's name)
How it was run: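 Ba/F3 cells dependent on TYK2 were exposed to serially diluted compound, then viability was read by CellTiter-Glo luminescence. Inhibition (%) was calculated from RLU relative to max and min controls, and IC50 was obtained by curve fitting.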

JAK1 JH2 pseudokinase = JAK1 JH2 pseudokinase (Homo sapiens, UniProt P23458); experiment: JAK1 JH2 enzyme binding assay in vitro (TR-FRET); conditions: read-out: JAK 1 JH2 IC50
Protocol: Instrumentation: Envision microplate reader (PerkinElmer), Echo (LABCYTE)
Method: in this experiment, the inhibitory effects of compounds on JAK1 JH2 pseudokinase was tested using time-resolved fluorescence resonance energy transfer (TR-FRET) method.
Procedure: compounds were prepared into 10 mM stock solutions using DMSO, which were further diluted into compound dilutions with different concentration gradients in DMSO, and the compound dilutions with 200× final concentration were transferred to a 384-well assay plate using an Echo instrument. The preparation of the following 1× assay working solution: HEPES pH7.5 at a final concentration of 20 mM, MgCl2 at a final concentration of 10 mM, Brij-35 at a final concentration of 0.015%, DTT at a final concentration of 2 mM, BSA at a final concentration of 50 ug/mL. JAK1 JH2 pseudokinase with 3× final concentration, Tb antibody and Tracer were prepared using their respective 1× working solution. 5 uL of JAK1 JH2 pseudokinase was added to a 384-well assay plate, and centrifuged at 1000 rpm for 30 s. 5 uL of Tb antibody was added to the 384-well assay plate, and centrifuged at 1000 rpm for 30 s. 5 uL of Tracer was added to the 384-well assay plate, and centrifuged at 1000 rpm for 30 s. Incubation was performed at room temperature for 60 min, and then at 4° C. overnight. Finally, the 495 nm/520 nm fluorescence signal ratio was measured using the Envision microplate reader (PerkinElmer).
Data Analysis: XLfit, a software developed by IDBS and integrated into the Microsoft Excel environment, was used to process and analyze the test data. […] Thereafter, the concentration and corresponding inhibition rate data were imported into the XLfit software, and the Dose Response One Site 205 model within the software was employed to fit the inhibition rate-concentration curve by four-parameter method, and the IC50 value of the compound was calculated.

hERG channel = molecular target: T2, hERG channel (Homo sapiens, UniProt Q12809); experiment: hERG potassium channel inhibition assay (manual patch clamp); format: cell-based; conditions: HEK-293 cell line stably expressing hERG channel, at the tested concentrations
T2 construct: expressed in transfected cells; host or cells: HEK-293
Protocol: Instrumentation: HEKA EPC 10 patch clamp amplifier.
Method: in this experiment, the blocking effect of the compounds on the current of the HEK-293 cell line stably expressing hERG channel was measured using the manual patch clamp technique, and the risk of the compounds on the inhibition of cardiac hERG potassium channel was assessed by fitting the concentration effect relationship.
Procedure: in the patch clamp operation, firstly, a capillary glass tube was pulled into a recording electrode using a microelectrode puller, then an electrode filled with intracellular solution was mounted into a microelectrode holder. A microelectrode manipulator was operated under an inverted microscope to immerse the electrode into an extracellular solution and the electrode resistance (Rpip) was recorded. Then, the electrode was slowly brought into contact with the cell surface, and a negative pressure was applied for suction to form a GΩ seal. At this point, a fast capacitance compensation was performed, and a negative pressure was continuously applied to suck and break the cell membrane to form a whole cell recording mode. Finally, a slow capacitance compensation was performed and experimental parameters including series resistance (Rs) and the like were recorded. No leakage compensation was performed. When the hERG current recorded by the whole cell was stable, the administration of drugs commenced, and each drug concentration acted for about 5 min (or until the current stabilization) before detecting the next concentration. A cover glass covered with cells was placed in a recording bath under an inverted microscope, the blank control extracellular solution and the working solution of the compounds to be tested sequentially flowed through the recording bath from low concentration to high concentration by using gravity perfusion to act on the cells, and solution exchange was performed using a peristaltic pump during recording. The current measured by each cell in the extracellular solution without the compound served as its own control group. Each concentration was independently assessed twice. All electrophysiological tests were performed at room temperature.
Data Analysis: firstly, the tail current (Peak tail currentcompound) after the action of each drug concentration and the blank control tail current (Peak tail currentcontrol) were normalized, then the inhibition rate
corresponding to each drug concentration was calculated, and the mean (Mean), standard deviation (SD) and standard error (SE) of the inhibition rate corresponding to each concentration were calculated, with data expressed as Mean±SE. The calculation of IC50 value and the fitting of dose-response curve for the compound were performed using GraphPad Prism software.

[3] = TR-FRET, read-out: JAK 3 JH1 IC50

JAK2 JH1 kinase, sequence (O60674 849-1124 limits assumed): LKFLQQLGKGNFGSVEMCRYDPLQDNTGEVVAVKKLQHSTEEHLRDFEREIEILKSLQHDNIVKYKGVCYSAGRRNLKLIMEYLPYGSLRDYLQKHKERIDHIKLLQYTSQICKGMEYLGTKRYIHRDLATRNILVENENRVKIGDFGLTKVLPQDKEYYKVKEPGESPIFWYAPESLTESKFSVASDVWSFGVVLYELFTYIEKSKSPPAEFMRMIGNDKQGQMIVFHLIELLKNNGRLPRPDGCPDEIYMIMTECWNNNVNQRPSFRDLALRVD
TYK2 JH2 pseudokinase, sequence (P29597 589-875 limits assumed): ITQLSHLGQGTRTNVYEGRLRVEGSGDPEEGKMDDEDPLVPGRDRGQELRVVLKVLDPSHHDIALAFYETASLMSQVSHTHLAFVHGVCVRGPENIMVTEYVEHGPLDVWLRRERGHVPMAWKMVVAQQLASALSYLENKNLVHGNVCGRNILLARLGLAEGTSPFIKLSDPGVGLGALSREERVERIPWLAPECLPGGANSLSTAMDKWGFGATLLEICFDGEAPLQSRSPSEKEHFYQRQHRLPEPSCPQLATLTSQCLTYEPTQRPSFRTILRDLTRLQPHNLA
T2 sequence (Q12809 whole entry): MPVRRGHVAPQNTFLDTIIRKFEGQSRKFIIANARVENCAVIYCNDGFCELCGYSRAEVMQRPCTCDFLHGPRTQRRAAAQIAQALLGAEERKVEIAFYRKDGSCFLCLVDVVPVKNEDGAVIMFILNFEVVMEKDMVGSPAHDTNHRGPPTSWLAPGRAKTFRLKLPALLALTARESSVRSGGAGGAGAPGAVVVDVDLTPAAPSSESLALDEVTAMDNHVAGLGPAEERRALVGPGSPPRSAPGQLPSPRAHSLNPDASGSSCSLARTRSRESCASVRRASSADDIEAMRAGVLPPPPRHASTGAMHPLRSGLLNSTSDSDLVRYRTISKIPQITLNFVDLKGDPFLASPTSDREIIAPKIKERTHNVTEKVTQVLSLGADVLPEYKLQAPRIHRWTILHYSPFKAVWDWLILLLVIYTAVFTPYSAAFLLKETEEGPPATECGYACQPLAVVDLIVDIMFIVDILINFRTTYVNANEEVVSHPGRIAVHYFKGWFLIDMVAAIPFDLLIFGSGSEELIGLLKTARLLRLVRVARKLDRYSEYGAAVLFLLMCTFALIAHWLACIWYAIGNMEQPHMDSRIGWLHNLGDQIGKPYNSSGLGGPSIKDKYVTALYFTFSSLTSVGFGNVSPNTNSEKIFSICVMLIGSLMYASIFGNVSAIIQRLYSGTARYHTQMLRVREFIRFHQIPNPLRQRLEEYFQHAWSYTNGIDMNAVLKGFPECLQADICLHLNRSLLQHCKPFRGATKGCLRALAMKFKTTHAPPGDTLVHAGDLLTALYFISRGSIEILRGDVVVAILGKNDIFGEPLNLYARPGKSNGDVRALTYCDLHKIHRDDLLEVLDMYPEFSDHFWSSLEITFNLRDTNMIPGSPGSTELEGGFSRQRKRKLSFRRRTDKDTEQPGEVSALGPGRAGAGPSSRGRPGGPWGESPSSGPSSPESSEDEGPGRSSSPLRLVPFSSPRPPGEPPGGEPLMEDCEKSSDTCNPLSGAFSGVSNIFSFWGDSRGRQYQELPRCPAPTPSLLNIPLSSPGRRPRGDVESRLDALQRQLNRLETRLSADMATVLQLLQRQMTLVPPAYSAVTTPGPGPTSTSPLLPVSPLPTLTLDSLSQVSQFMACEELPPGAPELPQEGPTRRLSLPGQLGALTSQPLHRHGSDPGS
JAK3 JH1 kinase, sequence (P52333 822-1111 limits assumed): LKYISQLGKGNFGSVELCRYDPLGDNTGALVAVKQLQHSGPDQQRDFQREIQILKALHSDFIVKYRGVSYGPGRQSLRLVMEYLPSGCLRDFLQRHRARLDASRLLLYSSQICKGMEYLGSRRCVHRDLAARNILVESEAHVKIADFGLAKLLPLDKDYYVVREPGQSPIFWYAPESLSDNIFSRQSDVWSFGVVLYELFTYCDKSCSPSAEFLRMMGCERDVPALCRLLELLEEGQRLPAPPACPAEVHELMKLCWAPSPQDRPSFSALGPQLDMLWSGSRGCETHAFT
JAK1 JH1 kinase, sequence (P23458 875-1153 limits assumed): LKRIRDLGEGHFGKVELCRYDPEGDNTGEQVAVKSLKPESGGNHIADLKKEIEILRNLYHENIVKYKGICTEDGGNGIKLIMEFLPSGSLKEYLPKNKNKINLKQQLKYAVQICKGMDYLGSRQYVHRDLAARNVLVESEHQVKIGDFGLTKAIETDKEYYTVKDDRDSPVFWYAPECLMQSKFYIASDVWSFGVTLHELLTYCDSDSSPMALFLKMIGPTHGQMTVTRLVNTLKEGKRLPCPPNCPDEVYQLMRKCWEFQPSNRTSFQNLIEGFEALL
JAK1 JH2 pseudokinase, sequence (P23458 583-855 limits assumed): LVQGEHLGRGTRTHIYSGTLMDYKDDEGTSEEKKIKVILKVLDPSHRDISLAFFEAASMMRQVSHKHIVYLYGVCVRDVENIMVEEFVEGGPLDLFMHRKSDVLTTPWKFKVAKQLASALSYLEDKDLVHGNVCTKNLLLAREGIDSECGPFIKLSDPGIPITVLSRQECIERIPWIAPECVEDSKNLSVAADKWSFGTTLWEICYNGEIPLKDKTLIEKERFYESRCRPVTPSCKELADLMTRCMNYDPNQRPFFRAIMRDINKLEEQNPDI

SMILES	IC50 (JAK3 JH1 kinase) [nM]	Percentage reduction in PASI score % ([1]; day 7, 10 mg/kg, oral, day 1 to 6)	Hematology Gran (SD rats)	Hematology Lymph (SD rats)	Hematology Mono (SD rats)	IC50 (JAK2 JH1 kinase) [nM]	IC50 (TYK2 JH1 kinase) [nM]	IC50 (TYK2 JH2 pseudokinase) [nM]	IC50 (JAK1 JH1 kinase) [nM]	IC50 (JAK3 JH1 kinase; [3]) [nM]	GI50 [2] [nM]	Improvement of psoriasis symptoms by oral administration [1]	IC50 (JAK1 JH2 pseudokinase) [nM]	hERG inhibition (hERG channel)
[2H]C([2H])([2H])NC(=O)c1nnc(NC(=O)C2CC2)cc1Nc1cccc(-c2ncn(C)n2)c1OC([2H])([2H])[2H] [BMS-986165, reference compound]	> 10000	30.1** %	1.6 ± 0.6 ×10^9/L	3.6 ± 0.8 ×10^9/L	0.2 ± 0.0 ×10^9/L									
[2H]C([2H])([2H])NC(=O)c1cnc(NC(=O)C2CC2)cc1Nc1cccc(C(=O)Nc2cncc(C)c2)c1OC [Example 91]						> 10000	> 10000	0.312	> 10000	> 10000	1 to 5	effectively improve psoriasis symptoms	3.29	no significant inhibition
[2H]C([2H])([2H])NC(=O)c1cnc(NC(=O)C2CC2)cc1Nc1cccc(C(=O)Nc2cccc(C)c2)c1OC [Example 55]						> 10000	> 10000	0.298	> 10000	> 10000	1 to 5	effectively improve psoriasis symptoms	3.3	no significant inhibition
[2H]C([2H])([2H])NC(=O)c1nnc(NC(=O)C2CC2)cc1Nc1cccc(C(=O)Nc2ccc(C)cc2)c1OC [Example 2]						> 10000	> 10000	0.311	> 10000	> 10000	1 to 5	effectively improve psoriasis symptoms	6.56	no significant inhibition
[2H]C([2H])([2H])NC(=O)c1cnc(NC(=O)C2CC2)cc1Nc1cccc(C(=O)Nc2ccc(C)cc2)c1OC [Example 54]						> 10000	> 10000	0.302	> 10000	> 10000	1 to 5	effectively improve psoriasis symptoms	4.56	no significant inhibition
